Reference: PubChem BioAssay AID1259407 (Chemical Carcinogenesis Research Information System (CCRIS), 2018)
Activity calls are given as the source filed them. The rule behind the calls is not given here.

System: CCRIS mutagenicity, Ames/micronucleus/aberration tests
Assay: CCRIS mutagenicity studies
[1] = Test System: AMES SALMONELLA TYPHIMURIUM, Strain/Indicator: TA97, Metabolic Activation: NONE, Method: PREINCUBATION
[2] = Test System: AMES SALMONELLA TYPHIMURIUM, Strain/Indicator: TA97, Metabolic Activation: RAT, LIVER, S-9, AROCLOR 1254, Method: PREINCUBATION
[3] = Test System: AMES SALMONELLA TYPHIMURIUM, Strain/Indicator: TA98, Metabolic Activation: NONE, Method: PREINCUBATION
[4] = Test System: AMES SALMONELLA TYPHIMURIUM, Strain/Indicator: TA98, Metabolic Activation: RAT, LIVER, S-9, AROCLOR 1254, Method: PREINCUBATION
[5] = Test System: AMES SALMONELLA TYPHIMURIUM, Strain/Indicator: TA100, Metabolic Activation: NONE, Method: PREINCUBATION
[6] = Test System: AMES SALMONELLA TYPHIMURIUM, Strain/Indicator: TA100, Metabolic Activation: RAT, LIVER, S-9, AROCLOR 1254, Method: PREINCUBATION
[7] = Test System: AMES SALMONELLA TYPHIMURIUM, Strain/Indicator: TA102, Metabolic Activation: NONE, Method: PREINCUBATION
[8] = Test System: AMES SALMONELLA TYPHIMURIUM, Strain/Indicator: TA102, Metabolic Activation: RAT, LIVER, S-9, AROCLOR 1254, Method: PREINCUBATION
[9] = Test System: AMES SALMONELLA TYPHIMURIUM, Strain/Indicator: TA1535, Metabolic Activation: NONE, Method: PREINCUBATION
[10] = Test System: AMES SALMONELLA TYPHIMURIUM, Strain/Indicator: TA1535, Metabolic Activation: RAT, LIVER, S-9, AROCLOR 1254, Method: PREINCUBATION
[11] = Test System: AMES SALMONELLA TYPHIMURIUM, Strain/Indicator: TA1537, Metabolic Activation: NONE, Method: PREINCUBATION
[12] = Test System: AMES SALMONELLA TYPHIMURIUM, Strain/Indicator: TA1537, Metabolic Activation: RAT, LIVER, S-9, AROCLOR 1254, Method: PREINCUBATION

Compound: COc1cc(C(C)=O)cc(OC)c1O
- mutagenic call [1]: inactive; negative
- mutagenic call [2]: inactive; negative
- mutagenic call [3]: inactive; negative
- mutagenic call [4]: inactive; negative
- mutagenic call [5]: inactive; negative
- mutagenic call [6]: inactive; negative
- mutagenic call [7]: inactive; negative
- mutagenic call [8]: inactive; negative

Compound: CN(CC(N)=O)C(=O)N(CCCl)N=O
- mutagenic call (Test System: Mouse lymphoma, Strain/Indicator: L5178Y (tk+/tk-), Metabolic Activation: None, Method: Suspension/plate): active; positive
- mutagenic call (Test System: Mouse lymphoma, Strain/Indicator: L5178Y (tk+/tk-), Metabolic Activation: Rat, Liver, S-9, Aroclor 1254, Method: Suspension/plate): active; positive

Compound: Cc1cncc(C)c1.Cc1cncc(C)c1.[Cl][Pt][Cl]
- mutagenic call (Test System: AMES SALMONELLA TYPHIMURIUM, Strain/Indicator: TA92, Metabolic Activation: NONE, Method: STANDARD PLATE): inactive; negative
- mutagenic call (Test System: AMES SALMONELLA TYPHIMURIUM, Strain/Indicator: TA98, Metabolic Activation: NONE, Method: STANDARD PLATE): active; positive
- mutagenic call (Test System: AMES SALMONELLA TYPHIMURIUM, Strain/Indicator: TA100, Metabolic Activation: NONE, Method: STANDARD PLATE): inactive; negative
- mutagenic call (Test System: AMES SALMONELLA TYPHIMURIUM, Strain/Indicator: TA2410, Metabolic Activation: NONE, Method: STANDARD PLATE): active; positive

Compound: Nc1ccc2c(O)cc(S(=O)(=O)O)cc2c1
- mutagenic call (End Point: IN VITRO CHROMOSOMAL ABERRATIONS, Test System: CHL CELLS, Metabolic Activation: NONE): inactive; negative
- mutagenic call (End Point: IN VITRO CHROMOSOMAL ABERRATIONS, Test System: CHL CELLS, Metabolic Activation: RAT, LIVER, S-9, SODIUM PHENOBARBITAL AND 5,6-BENZOFLAVONE): active; positive

Compound: Nc1nc(=O)n([C@H]2C[C@H](O)[C@@H](CO)O2)cc1I
- mutagenic call [1]: inactive; negative
- mutagenic call [2]: inactive; negative
- mutagenic call [3]: inactive; negative
- mutagenic call [4]: inactive; negative
- mutagenic call [5]: inactive; negative
- mutagenic call [6]: inactive; negative
- mutagenic call [7]: inactive; negative
- mutagenic call [8]: inactive; negative
- mutagenic call (Test System: AMES SALMONELLA TYPHIMURIUM, Strain/Indicator: TA104, Metabolic Activation: NONE, Method: PREINCUBATION): inactive; negative
- mutagenic call (Test System: AMES SALMONELLA TYPHIMURIUM, Strain/Indicator: TA104, Metabolic Activation: RAT, LIVER, S-9, AROCLOR 1254, Method: PREINCUBATION): inactive; negative
- mutagenic call [9]: inactive; negative
- mutagenic call [10]: inactive; negative
- mutagenic call [11]: inactive; negative
- mutagenic call [12]: inactive; negative
- mutagenic call (Test System: AMES SALMONELLA TYPHIMURIUM, Strain/Indicator: TA1538, Metabolic Activation: NONE, Method: PREINCUBATION): inactive; negative
- mutagenic call (Test System: AMES SALMONELLA TYPHIMURIUM, Strain/Indicator: TA1538, Metabolic Activation: RAT, LIVER, S-9, AROCLOR 1254, Method: PREINCUBATION): inactive; negative
- mutagenic call (Test System: CHINESE HAMSTER V-79, Strain/Indicator: V-79/8-AZAGUANINE, Metabolic Activation: NONE): inactive; negative

Compound: CC[N+](CC)=c1ccc2nc3c(cc(N)c4ccccc43)oc-2c1
- mutagenic call (Test System: AMES SALMONELLA TYPHIMURIUM, Strain/Indicator: TA100, Metabolic Activation: RAT, LIVER, S-9, AROCLOR 1254, Method: STANDARD PLATE): active; positive
- mutagenic call (Test System: AMES SALMONELLA TYPHIMURIUM, Strain/Indicator: TA1538, Metabolic Activation: NONE, Method: STANDARD PLATE): inactive; negative
- mutagenic call (Test System: AMES SALMONELLA TYPHIMURIUM, Strain/Indicator: TA1538, Metabolic Activation: RAT, LIVER, S-9, AROCLOR 1254, Method: STANDARD PLATE): active; positive

Compound: CC1CCC(C(C)CS)CC1S (stereo not drawn)
- mutagenic call (Test System: AMES SALMONELLA TYPHIMURIUM, Strain/Indicator: TA98, Metabolic Activation: HAMSTER, LIVER, S-9, AROCLOR 1254, Method: PREINCUBATION): inactive; negative
- mutagenic call [3]: inactive; negative
- mutagenic call [4]: inactive; negative
- mutagenic call (Test System: AMES SALMONELLA TYPHIMURIUM, Strain/Indicator: TA100, Metabolic Activation: HAMSTER, LIVER, S-9, AROCLOR 1254, Method: PREINCUBATION): inactive; negative
- mutagenic call [5]: inactive; negative
- mutagenic call [6]: inactive; negative
- mutagenic call (Test System: AMES SALMONELLA TYPHIMURIUM, Strain/Indicator: TA1535, Metabolic Activation: HAMSTER, LIVER, S-9, AROCLOR 1254, Method: PREINCUBATION): inactive; negative
- mutagenic call [9]: inactive; negative
- mutagenic call [10]: inactive; negative
- mutagenic call (Test System: AMES SALMONELLA TYPHIMURIUM, Strain/Indicator: TA1537, Metabolic Activation: HAMSTER, LIVER, S-9, AROCLOR 1254, Method: PREINCUBATION): inactive; negative
- mutagenic call [11]: inactive; negative
- mutagenic call [12]: inactive; negative
